PMC9404989, “Design and Evaluation of Short Bovine Lactoferrin-Derived Antimicrobial Peptides against Multidrug-Resistant Enterococcus faecium” (Antibiotics, 2022)
“And” between values parts separate entries of the source, which are not always exact repeats. Identical values can stand only once. No end group written: not given here.

How the values were obtained:
[1] = system: human red blood cells (hRBCs); assay type: cell-based
Procedure: We evaluated the ability of the peptide to cause hemoglobin leakage using the method described in [15]. In brief, we washed human erythrocytes (Rockland Immunochemicals (Limerick, Pottstown, PA, USA)) 3× times in an equal volume of PBS and resuspended them as 2% hRBCs solution. We added 90 µL of the blood cells to 10 µL of the peptide solution (10×) in a 96-well microtiter plate (Cat No. 3595, Corning, New York, NY, USA) and incubated the plates at 37 °C for 1 h. Next, we centrifuged the plates at 500× g for 5 min, transferred 60 µL of the supernatant into a fresh 96-well plate, and read the absorbance at 540 nm. We calculated the percent hemolysis considering 100% hemolysis caused by 1% Triton X-100, and 0% on PBS and using the formula for percentage of hemolysis as: (A540 nm in the peptide solution − A540 nm in PBS)/(A540 nm of 1% Triton X-100-treated sample − A540 nm in PBS) × 100.

[2] = system: E. faecium C68 biofilm formation; assay: Prevention of E. faecium biofilm formation (XTT, crystal violet); assay type: cell-based, Enterococcus faecium; settings: for biomass depleted / biofilm formation inhibited: at 32 µg/mL, biofilm formation stage
Procedure: We evaluated the ability of the lactoferrin-derived peptides to inhibit biofilm formation following an established protocol with modifications. In short, we prepared exponential cultures of E. faecium C68 (adjusted to OD600 = 0.01) in BHI media (supplemented with 0.2% glucose) from overnight grown cultures. We added 90 µL of the bacterial culture to 10 µL of serially diluted 10× peptide solution in flat-bottomed 96-well polystyrene microtiter plates (Cat No. 3595, Corning, NY, USA) and then incubated the plates at 37 °C for 24 h. We considered media containing bacteria and water as the positive control, while media with water served as the negative control. After incubation, we carefully pipetted out the media and washed the wells with PBS (Gibco, Waltham, MA, USA) to remove loosely attached planktonic cells. We quantified the biomass by staining the biofilms with crystal violet following an established protocol and quantitated the concentration of peptide that inhibits 50% of biofilm formation (MBIC50). Furthermore, we measured the live cell count of the biofilms using XTT [2,3-bis(2-methyloxy-4-nitro-5-sulfophenyl)-2H-tertazolium-5-carboxanilide] dye (ATCC, Manassas, VA, USA). We calculated the percentage of biofilm growth by assuming that there was 100% biofilm growth in wells with bacteria without peptide treatment.

E. faecalis OG1RF = assay: MIC assay, E. faecalis OG1RF; assay type: cell-based; settings: rifampin and fusidic acid resistant
Procedure: (§1) To determine the MICs of peptides, we used the broth microdilution method described by the Clinical and Laboratory Standards Institute. We made serial dilutions of 10× concentration (10 µL) for each peptide in duplicates in 96-well plates (Cat No. 3595, Corning, New York, NY, USA). We added 90 µL of logarithmic-phase bacteria at 5 × 10^5 CFU/mL (in BHI media) to the peptides and then incubated the plates at 37 °C for 18 h. We measured the OD600 absorbance readings using the Spectra Max i3x spectrophotometer (Molecular Devices, San Jose, CA, USA) and determined the MIC as the peptide concentration that inhibits the growth of bacteria.

HepG2 cells = assay: Mammalian cell cytotoxicity assay (WST-1); assay type: cell-based, human; settings: 24 h, WST-1, triplicates
Procedure: We used liver-derived HepG2 cells to evaluate AMP cytotoxicity behavior in mammalian cells based on an established protocol. We maintained the HepG2 cells at 37 °C in 5% CO2 in Dulbecco’s Modified Eagle Medium (DMEM) (Gibco, Waltham, MA, USA) supplemented with 10% fetal bovine serum (FBS) (Gibco, Gaithersburg, MD, USA) and 1% penicillin/streptomycin (Gibco, Gaithersburg, MD, USA). Next, we harvested and resuspended the cells in a fresh medium and distributed 50 µL ([…]) in a 96-well plate containing 50 µL of serially diluted AMPs in serum and antibiotic-free DMEM and incubated the plates at 37 °C in 5% CO2 for 24 h. Before the end of the incubation period (at the 20th hour), we added 10 µL of 2-(4-iodophenyl)-3-(4-nitrophenyl)-5-(2,4-disulfophenyl)-2H-tetrazolium (WST-1) (Roche, Mannheim, Germany) to each well and monitored the reduction of WST-1 at 450 nm using a SpectraMax i3x (Molecular Devices, San Jose, CA, USA). We performed the assays in triplicates and calculated the percentage of cell survival.

E. faecalis MMH594 = assay: microbe, parasite or virus in culture; assay type: cell-based; settings: MMH594, 18 h
Procedure: as §1

E. faecalis V583 = assay: microbe, parasite or virus in culture; assay type: cell-based; settings: V583, 18 h
Procedure: as §1

E. faecium strain C68 = assay: Growth inhibition assay; assay type: cell-based, Enterococcus faecium; settings: 32 µg/mL, OD600 over 4 h
Procedure: We cultivated overnight cultures of E. faecium strain C68 in BHI media. We inoculated the bacteria in a fresh BHI medium the next day to achieve the exponential phase and adjusted the bacterial density to 1 × 10^8 CFU/mL. We added 90 µL of this bacterial culture to each well of the microtiter plates (Cat No. 3595, Corning, New York, NY, USA) containing 10 µL of serially diluted 10× peptide solution. We monitored the bacterial growth on a SpectraMax i3x spectrophotometer (Molecular Devices, San Jose, CA, USA) by taking OD600 readings every 10 min for 4 h.

Row | Substance | HL50 [1] | biomass depleted / biofilm formation inhibited [2] | MIC E. faecalis OG1RF (E. faecalis OG1RF) | concentration without cell death in HepG2 cells (HepG2 cells) | MIC E. faecalis MMH594 (E. faecalis MMH594) | MIC E. faecalis V583 (E. faecalis V583) | concentration killing 50% of live bacterial cells during biofilm formation stage ([2]; XTT, 24 h, BHI + 0.2% glucose) | growth inhibition (E. faecium strain C68)
1 | RRWLWLRRWLWR-NH2 [Peptide 5L] | 56 µg/mL | 90% | > 32 µg/mL | ≥ 128 µg/mL | > 32 µg/mL | > 32 µg/mL | – | –
2 | RRWLWRLRWLWR-NH2 [Peptide 6L] | 34 µg/mL | 90% and 92% | > 32 µg/mL | ≥ 128 µg/mL | > 32 µg/mL | > 32 µg/mL | 1.2 µg/mL | inhibited the maximum growth
